From the NIST ThermoML archive (doi:10.1021/acs.jced.5b00691)
± gives the expanded uncertainty stated by the source.

What was measured:
[1] = for surface tension liquid-gas: surface light scattering; for kinematic viscosity / mass density: Liquid; for kinematic viscosity: Surface laser light scattering (SLLS); for mass density: Vibrating tube method
[2] = xn = mol fraction of the nth substance listed; settings: for surface tension liquid-gas: surface light scattering; for kinematic viscosity / mass density: Liquid; for kinematic viscosity: Surface Light Scattering; for mass density: Vibrating tube method

COC(F)(C(F)(F)C(F)(F)F)C(F)(C(F)(F)F)C(F)(F)F (stereo not given)
[1]
Settings	kinematic viscosity [m2/s]	mass density [kg/m3]	surface tension liquid-gas [mN/m]
273.15 K	1.01e-06 ± 2.5e-08	1714.26 ± 34	16.56 ± 0.67
278.15 K	–	1702.92 ± 34	–
283.15 K	8.49e-07 ± 2.2e-08	1691.49 ± 34	15.81 ± 0.64
288.15 K	–	1680.02 ± 34	–
293.15 K	7.37e-07 ± 1.9e-08	1668.48 ± 33	14.97 ± 0.6
298.15 K	–	1656.86 ± 33	–
303.15 K	6.31e-07 ± 1.7e-08	1645.14 ± 33	14.15 ± 0.57
308.15 K	–	1633.38 ± 33	–
313.15 K	5.56e-07 ± 1.6e-08	1621.44 ± 32	13.43 ± 0.54
318.15 K	–	1609.41 ± 32	–
323.15 K	4.92e-07 ± 1.5e-08	1597.29 ± 32	12.61 ± 0.51
328.15 K	–	1585.05 ± 32	–
333.15 K	4.36e-07 ± 1.4e-08	1572.65 ± 31	11.79 ± 0.48
338.15 K	–	1560.14 ± 31	–
343.15 K	3.95e-07 ± 1.3e-08	1547.49 ± 31	11.03 ± 0.44
348.15 K	–	1534.67 ± 31	–
353.15 K	3.52e-07 ± 1.2e-08	1521.68 ± 30	10.16 ± 0.41
358.15 K	–	1508.51 ± 30	–
363.15 K	3.15e-07 ± 1.1e-08	1495.16 ± 30	9.43 ± 0.38
373.15 K	2.88e-07 ± 1.1e-08	–	8.64 ± 0.35

CCOC(F)(C(F)(F)C(F)(F)C(F)(F)F)C(F)(C(F)(F)F)C(F)(F)F (stereo not given) [2-trifluoromethyl-3-ethoxydodecafluorohexane]
[1]
Settings	kinematic viscosity [m2/s]	mass density [kg/m3]	surface tension liquid-gas [mN/m]
273.15 K	1.14e-06 ± 2.8e-08	1670.6 ± 33	16.92 ± 0.68
278.15 K	–	1660.59 ± 33	–
283.15 K	9.38e-07 ± 2.4e-08	1650.49 ± 33	16.23 ± 0.65
288.15 K	–	1640.35 ± 33	–
293.15 K	8.04e-07 ± 2.1e-08	1630.17 ± 33	15.52 ± 0.63
298.15 K	–	1619.92 ± 32	–
303.15 K	6.91e-07 ± 1.9e-08	1609.61 ± 32	14.75 ± 0.59
308.15 K	–	1599.24 ± 32	–
313.15 K	6.11e-07 ± 1.7e-08	1588.77 ± 32	14.07 ± 0.57
318.15 K	–	1578.28 ± 32	–
323.15 K	5.38e-07 ± 1.5e-08	1567.69 ± 31	13.3 ± 0.54
328.15 K	–	1557 ± 31	–
333.15 K	4.71e-07 ± 1.4e-08	1546.2 ± 31	12.65 ± 0.51
338.15 K	–	1535.3 ± 31	–
343.15 K	4.28e-07 ± 1.3e-08	1524.31 ± 30	11.89 ± 0.48
348.15 K	–	1513.21 ± 30	–
353.15 K	3.88e-07 ± 1.3e-08	1501.99 ± 30	11.13 ± 0.45
358.15 K	–	1490.64 ± 30	–
363.15 K	3.52e-07 ± 1.2e-08	1479.16 ± 30	10.4 ± 0.42
373.15 K	3.17e-07 ± 1.1e-08	–	9.66 ± 0.39

COC(F)(F)C(F)(F)C(F)(F)F [heptafluoropropyl methyl ether]
[1]
Settings	kinematic viscosity [m2/s]	mass density [kg/m3]	surface tension liquid-gas [mN/m]
273.15 K	4.22e-07 ± 1.3e-08	1471.16 ± 0.42	14.49 ± 0.58
278.15 K	–	1458.15 ± 0.41	–
283.15 K	3.65e-07 ± 1.2e-08	1444.94 ± 0.41	13.31 ± 0.53
288.15 K	–	1431.58 ± 0.4	–
293.15 K	3.3e-07 ± 1.2e-08	1418.04 ± 0.4	12.33 ± 0.49
298.15 K	–	1404.3 ± 0.39	–
303.15 K	2.9e-07 ± 1.1e-08	1390.35 ± 0.38	11.23 ± 0.45
308.15 K	–	1376.15 ± 0.38	–
313.15 K	2.64e-07 ± 1e-08	1361.67 ± 0.37	10.27 ± 0.41
318.15 K	–	1346.91 ± 0.36	–
323.15 K	2.37e-07 ± 1e-08	1331.89 ± 0.36	9.23 ± 0.37
328.15 K	–	1316.54 ± 0.35	–
333.15 K	2.2e-07 ± 9.7e-09	1300.86 ± 0.34	8.28 ± 0.33
338.15 K	–	1284.82 ± 0.34	–
343.15 K	2.01e-07 ± 9.4e-09	1268.38 ± 0.33	7.36 ± 0.3
348.15 K	–	1251.45 ± 0.32	–
353.15 K	1.8e-07 ± 9.2e-09	1234.05 ± 0.31	6.38 ± 0.26
358.15 K	–	1216.87 ± 0.31	–
363.15 K	1.66e-07 ± 9e-09	1199.54 ± 0.3	5.48 ± 0.22
373.15 K	1.53e-07 ± 8.9e-09	–	4.62 ± 0.19

COC(F)(F)C(F)(C(F)(F)F)C(F)(F)F [methyl nonafluoroisobutyl ether] + COC(F)(F)C(F)(F)C(F)(F)C(F)(F)F
[2], x1 = 0.623
Settings	kinematic viscosity [m2/s]	mass density [kg/m3]	surface tension liquid-gas [mN/m]
273.15 K	6.64e-07 ± 1.8e-08	1579.23 ± 2.3	15.82 ± 0.63
278.15 K	–	1566.86 ± 2.2	–
283.15 K	5.7e-07 ± 1.6e-08	1554.37 ± 2.2	14.82 ± 0.59
288.15 K	–	1541.76 ± 2.2	–
293.15 K	4.84e-07 ± 1.4e-08	1529.03 ± 2.2	13.8 ± 0.55
298.15 K	–	1516.15 ± 2.2	–
303.15 K	4.28e-07 ± 1.3e-08	1503.18 ± 2.1	12.89 ± 0.52
308.15 K	–	1490.04 ± 2.1	–
313.15 K	3.81e-07 ± 1.2e-08	1476.74 ± 2.1	11.92 ± 0.48
318.15 K	–	1463.23 ± 2.1	–
323.15 K	3.38e-07 ± 1.2e-08	1449.5 ± 2.1	11 ± 0.44
328.15 K	–	1435.61 ± 2	–
333.15 K	3.06e-07 ± 1.1e-08	1421.48 ± 2	10.06 ± 0.4
338.15 K	–	1407.13 ± 2	–
343.15 K	2.77e-07 ± 1.1e-08	1392.52 ± 2	9.13 ± 0.37
348.15 K	–	1377.65 ± 2	–
353.15 K	2.46e-07 ± 1e-08	1362.5 ± 1.9	8.16 ± 0.33
358.15 K	–	1347.04 ± 1.9	–
363.15 K	2.28e-07 ± 9.8e-09	1331.24 ± 1.9	7.32 ± 0.29
373.15 K	2.09e-07 ± 9.5e-09	–	6.46 ± 0.26

CCOC(F)(F)C(F)(C(F)(F)F)C(F)(F)F [nonafluoroisobutyl ethyl ether] + CCOC(F)(F)C(F)(F)C(F)(F)C(F)(F)F
[2], x1 = 0.613
Settings	kinematic viscosity [m2/s]	mass density [kg/m3]	surface tension liquid-gas [mN/m]
273.15 K	6.63e-07 ± 1.8e-08	1478.05 ± 0.89	16.03 ± 0.65
278.15 K	–	1467.14 ± 0.88	–
283.15 K	5.56e-07 ± 1.6e-08	1456.15 ± 0.87	14.9 ± 0.6
288.15 K	–	1445.07 ± 0.86	–
293.15 K	4.82e-07 ± 1.5e-08	1433.94 ± 0.85	14.01 ± 0.56
298.15 K	–	1422.65 ± 0.84	–
303.15 K	4.29e-07 ± 1.3e-08	1411.31 ± 0.83	13.21 ± 0.53
308.15 K	–	1399.85 ± 0.82	–
313.15 K	3.82e-07 ± 1.3e-08	1388.27 ± 0.81	12.33 ± 0.5
318.15 K	–	1376.56 ± 0.8	–
323.15 K	3.43e-07 ± 1.2e-08	1364.66 ± 0.79	11.42 ± 0.46
328.15 K	–	1352.68 ± 0.78	–
333.15 K	3.13e-07 ± 1.1e-08	1340.45 ± 0.77	10.56 ± 0.43
338.15 K	–	1328.09 ± 0.75	–
343.15 K	2.83e-07 ± 1.1e-08	1315.57 ± 0.74	9.67 ± 0.39
348.15 K	–	1302.85 ± 0.73	–
353.15 K	2.56e-07 ± 1e-08	1289.93 ± 0.72	8.84 ± 0.36
358.15 K	–	1276.74 ± 0.71	–
363.15 K	2.38e-07 ± 1e-08	1263.25 ± 0.7	7.99 ± 0.32
373.15 K	2.22e-07 ± 9.8e-09	–	7.19 ± 0.29
